In patent US20240368203A1, “DEGRADATION OF (EGFR) BY CONJUGATION OF EGFR INHIBITORS WITH E3 LIGASE LIGAND AND METHODS OF USE” (BeiGene, Ltd., priority 2022, published 2024):

How the values were obtained:
EGFR-Del19/T790M/C797S = test: EGFR degradation HTRF assay in H1975-clone #28 cells; format: cell-based; conditions: H1975-clone #28 (Del19/T790M/C797S) cells, 16 h treatment; for DC50: IC50 (DC50), read-out: DC50(nM) H1975 # 28 DTC; for Dmax (%) H1975 # 28 DTC: maximum percentage of inhibition (degradation)
Summary of the method: (§1)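 H1975 clones with endogenous EGFR knocked out, homozygously expressing lentiviral L858R/T790M/C797S (#25) or Del19/T790M/C797S (#28), treated 16 h at 37° C with 8 doses from 10 uM, 5-fold, in 0.2% DMSO. EGFR in lysates measured by HTRF overnight; DC50 from four-parameter fit of % degradation.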

EGFR-L858R/T790M/C797S = molecular target: T1, EGFR-L858R/T790M/C797S (Homo sapiens, UniProt P00533, C797S/L858R/T790M); test: EGFR degradation HTRF assay in H1975-clone #25 cells; format: cell-based; conditions: 16 h treatment; for DC50: H1975-clone #25 (L858R/T790M/C797S) cells, IC50 (DC50), read-out: DC50(nM) H1975 # 25-LTC; for Dmax: NCI-H1975, H1975-clone #25 (L858R/T790M/C797S) cells, maximum percentage of inhibition (degradation), read-out: Dmax (%) H1975 # 25-LTC
T1 construct: expressed in transfected cells; host or cells: H1975-clone #25 (lentiviral over-expression, endogenous EGFR knocked out)
Summary of the method: as §1

T1 sequence (P00533 25-1210 T790M/C797S/L858R): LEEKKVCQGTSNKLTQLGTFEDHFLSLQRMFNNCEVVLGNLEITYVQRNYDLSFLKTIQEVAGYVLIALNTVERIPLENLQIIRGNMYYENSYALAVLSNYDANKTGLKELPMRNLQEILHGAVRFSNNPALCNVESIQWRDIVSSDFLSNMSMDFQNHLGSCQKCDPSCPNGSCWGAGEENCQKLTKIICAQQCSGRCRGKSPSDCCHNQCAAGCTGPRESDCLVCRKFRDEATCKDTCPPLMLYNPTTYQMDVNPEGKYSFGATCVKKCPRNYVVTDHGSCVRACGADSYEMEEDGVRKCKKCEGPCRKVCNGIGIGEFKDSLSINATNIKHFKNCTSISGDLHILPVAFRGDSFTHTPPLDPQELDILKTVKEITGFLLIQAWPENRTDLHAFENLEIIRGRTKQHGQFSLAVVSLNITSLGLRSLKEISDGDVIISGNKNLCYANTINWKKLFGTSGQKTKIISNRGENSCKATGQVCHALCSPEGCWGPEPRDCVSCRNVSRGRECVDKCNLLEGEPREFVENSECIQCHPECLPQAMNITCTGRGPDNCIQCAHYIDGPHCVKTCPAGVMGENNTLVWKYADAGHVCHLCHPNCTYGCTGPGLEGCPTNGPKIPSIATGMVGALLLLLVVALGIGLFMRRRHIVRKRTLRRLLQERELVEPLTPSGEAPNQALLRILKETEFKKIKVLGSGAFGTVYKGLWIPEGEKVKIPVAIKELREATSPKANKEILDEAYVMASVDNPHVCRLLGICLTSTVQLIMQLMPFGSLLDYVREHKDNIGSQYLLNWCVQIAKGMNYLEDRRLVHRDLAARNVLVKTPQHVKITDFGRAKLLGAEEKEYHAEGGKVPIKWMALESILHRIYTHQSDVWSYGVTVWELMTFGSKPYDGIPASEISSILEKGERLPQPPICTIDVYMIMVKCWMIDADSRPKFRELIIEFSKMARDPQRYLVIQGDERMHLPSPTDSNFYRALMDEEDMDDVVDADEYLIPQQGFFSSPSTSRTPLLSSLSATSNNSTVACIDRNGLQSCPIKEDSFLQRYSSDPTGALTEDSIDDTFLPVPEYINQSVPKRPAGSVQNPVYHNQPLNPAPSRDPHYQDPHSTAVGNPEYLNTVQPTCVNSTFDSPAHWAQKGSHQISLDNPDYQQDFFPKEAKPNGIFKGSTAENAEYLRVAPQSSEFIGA

Compound	DC50 (EGFR-Del19/T790M/C797S) [nM]	DC50 (EGFR-L858R/T790M/C797S) [nM]	Dmax (EGFR-L858R/T790M/C797S) [%]	Dmax (%) H1975 # 28 DTC (EGFR-Del19/T790M/C797S) [%]
CCc1ccc2c(P(C)(C)=O)c(Nc3nc(Nc4cc(CC)c(N5CCC(N6CCC(N7CC(c8cccc9c8n(C)c(=O)n9C8CCC(=O)NC8=O)C7)CC6)CC5)cc4OC)ncc3Br)ccc2n1 (stereo not drawn) [Example 63, 3-(4-(1-(1′-(4-((5-bromo-4-((5-(dimethylphosphoryl)-2-ethylquinolin-6-yl)amino)pyrimidin-2-yl)amino)-2-ethyl-5-methoxyphenyl)-[1,4′-bipiperidin]-4-yl)azetidin-3-yl)-3-methyl-2-oxo-2,3-dihydro-1H-benzo[d]imidazol-1-yl)piperidine-2,6-dione]	4.7	2.7	77	74
COc1cc(N2CCC3(CC2)CCN(C2CCN(c4cc(F)c([C@H]5CCC(=O)NC5=O)c(F)c4)CC2)CC3)c(C)cc1Nc1ncc(Br)c(Nc2ccc3nc(C)ncc3c2P(C)(C)=O)n1 [Example 66, (R)-3-(4-(4-(9-(4-((5-bromo-4-((5-(dimethylphosphoryl)-2-methylquinazolin-6-yl)amino)pyrimidin-2-yl)amino)-5-methoxy-2-methylphenyl)-3,9-diazaspiro[5.5]undecan-3-yl)piperidin-1-yl)-2,6-difluorophenyl)piperidine-2,6-dione]	3.5	6.9	93	91
CCc1ccc2c(P(C)(C)=O)c(Nc3nc(Nc4cc(C)c(N5CCC6(CCN(CCc7cccc8c7n(C)c(=O)n8C7CCC(=O)NC7=O)CC6)CC5)cc4OC)ncc3Br)ccc2n1 (stereo not drawn) [Example 68, 3-(4-(2-(9-(4-((5-bromo-4-((5-(dimethylphosphoryl)-2-ethylquinolin-6-yl)amino)pyrimidin-2-yl)amino)-5-methoxy-2-methylphenyl)-3,9-diazaspiro[5.5]undecan-3-yl)ethyl)-3-methyl-2-oxo-2,3-dihydro-1H-benzol[d]imidazol-1-yl)piperidine-2,6-dione]	2.2	3.1	81	82
CCc1cc(Nc2ncc(Cl)c(Nc3ccc4nc(C)c(F)cc4c3P(C)(C)=O)n2)c(OC)cc1N1CC2(CN(CC3CN(c4cc(F)c([C@H]5CCC(=O)NC5=O)c(F)c4)C3)C2)C1 [Example 78]	1.9	5.4	74	90
CCc1cc(Nc2ncc(Br)c(Nc3ccc4nc(C)c(F)cc4c3P(C)(C)=O)n2)c(OC)cc1N1CCC2(CCN(CC3CCN(c4cc(F)c([C@H]5CCC(=O)NC5=O)c(F)c4)CC3)CC2)CC1 [Example 79, (R)-3-(4-(4-((9-(4-((5-bromo-4-((5-(dimethylphosphoryl)-3-fluoro-2-methylquinolin-6-yl)amino)pyrimidin-2-yl)amino)-2-ethyl-5-methoxyphenyl)-3,9-diazaspiro[5.5]undecan-3-yl)methyl)piperidin-1-yl)-2,6-difluorophenyl)piperidine-2,6-dione]	6.6	3.3	95	90
CCc1cc(Nc2ncc(Br)c(Nc3ccc4nc(C)c(F)cc4c3P(C)(C)=O)n2)c(OC)cc1N1CCC2(CC1)CCN(C1CCN(c3ccc4c(c3)C(=O)N(C3CCC(=O)NC3=O)C4=O)CC1)CC2 (stereo not drawn) [Example 92, 5-(4-(9-(4-((5-bromo-4-((5-(dimethylphosphoryl)-3-fluoro-2-methylquinolin-6-yl)amino)pyrimidin-2-yl)amino)-2-ethyl-5-methoxyphenyl)-3,9-diazaspiro[5.5]undecan-3-yl)piperidin-1-yl)-2-(2,6-dioxopiperidin-3-yl)isoindoline-1,3-dione]	3.3	8.2	85	67

Now those with a lower DC50 (EGFR-Del19/T790M/C797S), led by results:

DC50 (EGFR-Del19/T790M/C797S) [nM]	DC50 (EGFR-L858R/T790M/C797S) [nM]	Dmax (EGFR-L858R/T790M/C797S) [%]	Compound	Dmax (%) H1975 # 28 DTC (EGFR-Del19/T790M/C797S) [%]
1.8	2	82	COc1cc(N2CCC3(CCN(CC4CCN(c5ccc6c(c5)CN(C5CCC(=O)NC5=O)C6=O)CC4)CC3)CC2)c(C)cc1Nc1ncc(Br)c(Nc2ccc3nc(C)ccc3c2P(C)(C)=O)n1 (stereo not drawn) [Example 72, 3-(5-(4-((9-(4-((5-bromo-4-((5-(dimethylphosphoryl)-2-methylquinolin-6-yl)amino)pyrimidin-2-yl)amino)-5-methoxy-2-methylphenyl)-3,9-diazaspiro[5.5]undecan-3-yl)methyl)piperidin-1-yl)-1-oxoisoindolin-2-yl)piperidine-2,6-dione]	82
1.4	1.6	95	CCc1cc(Nc2ncc(Br)c(Nc3ccc4nc(C)c(F)cc4c3P(C)(C)=O)n2)c(OC)cc1N1CCC2(CC1)CN(C1CCN(c3cc(F)c([C@H]4CCC(=O)NC4=O)c(F)c3)CC1)C2 [Example 62, (R)-3-(4-(4-(7-(4-((5-bromo-4-((5-(dimethylphosphoryl)-3-fluoro-2-methylquinolin-6-yl)amino)pyrimidin-2-yl)amino)-2-ethyl-5-methoxyphenyl)-2,7-diazaspiro[3.5]nonan-2-yl)piperidin-1-yl)-2,6-difluorophenyl)piperidine-2,6-dione]	89
1.1	1.5	95	CCc1cc(Nc2ncc(Br)c(Nc3ccc4nc(C)c(F)cc4c3P(C)(C)=O)n2)c(OC)cc1N1CC2(C1)CN(C1CCN(c3cc(F)c([C@H]4CCC(=O)NC4=O)c(F)c3)CC1)C2 [Example 64, (R)-3-(4-(4-(6-(4-((5-bromo-4-((5-(dimethylphosphoryl)-3-fluoro-2-methylquinolin-6-yl)amino)pyrimidin-2-yl)amino)-2-ethyl-5-methoxyphenyl)-2,6-diazaspiro[3.3]heptan-2-yl)piperidin-1-yl)-2,6-difluorophenyl)piperidine-2,6-dione]	94
